In patent US20260085077A1, “HETEROCYCLIC DERIVATIVES AS JANUS KINASE INHIBITORS” (CHIESI FARMACEUTICI S.P.A., priority 2022, published 2026):

tested on: IL-13 induced pSTAT6 in BEAS-2B human cell line; assay: Inhibition of IL-13 induced pSTAT6 in BEAS; type: cell-based; settings: IL-13 induced pSTAT6, BEAS-2B cells, ELISA
Procedure: BEAS-2B human cell line was seeded (100.000 cells/well) and incubated for 48 h at 37° C., 5% CO2, 95% humidity. Compounds were added and incubated 30 min followed by IL-13 as trigger. After 30 min incubation, cells were lysed and pSTAT6 determined by Fastscan phospho-stat6 (Tyr641) sandwich ELISA kit (cell signaling). Inhibitors were tested at 11 consecutive […] dilutions starting from 10 μM (10 μM-40 pM) in duplicate. Calculation of IC50 data, curves and QC analysis were made using Excel tools and GraphPadPrism software. QC criteria parameters: Z′≥0.35, Hill Slope range 0.5 to 5, S:B>2.

Compared with `COc1cc2c(cc1-n1nc(NC(=O)OCCN3CCOCC3)c3cnc(-c4cnn5cccnc45)cc31)SCCN2` [Example 29, 2-morpholinoethyl (1-(6-methoxy-3,4-dihydro-2H-benzo[b][1,4]thiazin-7-yl)-6-(pyrazolo[1,5-a]pyrimidin-3-yl)-1H-pyrazolo[4,3-c]pyridin-3-yl)carbamate], `COc1cc2c(cc1-n1nc(NC(=O)OCCN3CCCCC3)c3cnc(-c4cnn5cccnc45)cc31)SCCN2` [Example 31, 2-(piperidin-1-yl)ethyl (1-(6-methoxy-3,4-dihydro-2H-benzo[b][1,4]thiazin-7-yl)-6-(pyrazolo[1,5-a]pyrimidin-3-yl)-1H-pyrazolo[4,3-c]pyridin-3-yl)carbamate] is higher in IC50: less than 5.01 nM for the first, 5.01 to 50.1 nM for the second. The first is the more potent here.

`COc1cc2c(cc1-n1nc(NC(=O)OCCCN3CCN(C)CC3)c3cnc(-c4cnn5cccnc45)cc31)SCCN2` [Example 30, 3-(4-methylpiperazin-1-yl)propyl (1-(6-methoxy-3,4-dihydro-2H-benzo[b][1,4]thiazin-7-yl)-6-(pyrazolo[1,5-a]pyrimidin-3-yl)-1H-pyrazolo[4,3-c]pyridin-3-yl)carbamate] and `COc1cc2c(cc1-n1nc(NC(=O)OCCN3CC[C@@H](OC)C3)c3cnc(-c4cnn5cccnc45)cc31)SCCN2` [Example 35, (R)-2-(3-methoxypyrrolidin-1-yl)ethyl (1-(6-methoxy-3,4-dihydro-2H-benzo[b][1,4]thiazin-7-yl)-6-(pyrazolo[1,5-a]pyrimidin-3-yl)-1H-pyrazolo[4,3-c]pyridin-3-yl)carbamate] fall in the same range of IC50: 5.01 to 50.1 nM for the first, 5.01 to 50.1 nM for the second.

`COc1cc2c(cc1-n1nc(NC(=O)O[C@@H]3CCN(C)C3)c3cnc(-c4cnn5cccnc45)cc31)SCCN2` [Example 32, (R)-1-methylpyrrolidin-3-yl (1-(6-methoxy-3,4-dihydro-2H-benzo[b][1,4]thiazin-7-yl)-6-(pyrazolo[1,5-a]pyrimidin-3-yl)-1H-pyrazolo[4,3-c]pyridin-3-yl)carbamate] and `COc1cc2c(cc1-n1nc(NC(=O)O[C@H]3CCN(C)C3)c3cnc(-c4cnn5cccnc45)cc31)SCCN2` [Example 33, (S)-1-methylpyrrolidin-3-yl (1-(6-methoxy-3,4-dihydro-2H-benzo[b][1,4]thiazin-7-yl)-6-(pyrazolo[1,5-a]pyrimidin-3-yl)-1H-pyrazolo[4,3-c]pyridin-3-yl)carbamate] fall in the same range of IC50: 5.01 to 50.1 nM for the first, 5.01 to 50.1 nM for the second.

First: COc1cc2c(cc1-n1nc(NC(=O)OCC3(N(C)C)CCOCC3)c3cnc(-c4cnn5cccnc45)cc31)SCCN2 [Example 34, (4-(dimethylamino)tetrahydro-2H-pyran-4-yl)methyl (1-(6-methoxy-3,4-dihydro-2H-benzo[b][1,4]thiazin-7-yl)-6-(pyrazolo[1,5-a]pyrimidin-3-yl)-1H-pyrazolo[4,3-c]pyridin-3-yl)carbamate]
Second: COc1cc2c(cc1-n1nc(NC(=O)N(C)C)c3cnc(-c4cnn5cccnc45)cc31)SCCN2 [Example 36, 3-(1-(6-methoxy-3,4-dihydro-2H-benzo[b][1,4]thiazin-7-yl)-6-(pyrazolo[1,5-a]pyrimidin-3-yl)-1H-pyrazolo[4,3-c]pyridin-3-yl)-1,1-dimethylurea]
The IC50 of the first is higher: 5.01 to 50.1 nM for the first, less than 5.01 nM for the second.

`COc1cc2c(cc1-n1nc(NCCN3CCN(C)CC3)c3cnc(-c4cnn5cccnc45)cc31)SCC(=O)N2` [Example 37] and `COc1cc2c(cc1-n1nc(NCCN(C)C)c3cnc(-c4cnn5cccnc45)cc31)SCC(=O)N2` [Example 38, 7-(3-((2-(dimethylamino)ethyl)amino)-6-(pyrazolo[1,5-a]pyrimidin-3-yl)-1H-pyrazolo[4,3-c]pyridin-1-yl)-6-methoxy-2H-benzo[b][1,4]thiazin-3(4H)-one] fall in the same range of IC50: 5.01 to 50.1 nM for the first, 5.01 to 50.1 nM for the second.

With `COc1cc2sncc2cc1-n1nc(NCCN2CCOCC2)c2cnc(-c3cnn4cccnc34)cc21` [Example 39, 1-(6-methoxybenzo[d]isothiazol-5-yl)-N-(2-morpholinoethyl)-6-(pyrazolo[1,5-a]pyrimidin-3-yl)-1H-pyrazolo[4,3-c]pyridin-3-amine] the IC50 was 5.01 to 50.1 nM.
